The source of these data is patent EP3693740A1, “IMPROVED DITHIOCARMABATE BASED COMPOUNDS, THERAPIES AND DIAGNOSTICS” (Deutsches Krebsforschungszentrum, Stiftung des öffentlichen …, priority 2019, dated 2020).

In data set [1] the test system is peroxides (most likely H2O2). In words: Peroxide quantification with ROS Glo probe (boronate-caged luciferin precursor). In kind it is cell-based. From the text: Gold(I) complexes have been previously reported to induce pro-oxidative effects in tumour cells.
The next data set deals with SCLC cell line H209. Briefly: Induction of apoptotic cell death. In kind it is cell-based. From the text:
Treatment with DKFZ-608 caused morphological changes of the nucleus reminiscent of apoptosis (Figure 1A). […] The inventors then investigated the possible involvement of apoptotic mechanisms in the SCLC cell line H209. […] It was also investigated whether alternative cell death mechanisms like ferroptosis, necroptosis or entosis contribute to the cytotoxicity of DKFZ-608 on SCLC. Inhibitors of those cell death programs were, however, not able to desensitize SCLC cells.

Data set [2] has as its target T1, TRXR1 (Homo sapiens, UniProt Q16881).
The target in data set [3] is truncated form of TRXR1, lacking the Sec (TRXR1ΔSec) (Homo sapiens, UniProt Q16881). From the text: The present invention will now be further described in the following examples with reference to the accompanying figures and sequences, nevertheless, without being limited thereto. For the purposes of the present invention, all references as cited herein are incorporated by reference in their entireties.

The subject of the next data set is SCLC. Briefly: SCLC animal model, residual tumour cells after first line therapy. In kind it is in vivo. From the text: In context of the herein disclosed invention it was discovered, that thioredoxin reductase 1 (TRXR1), when inhibited competitively, is a promising drug target for SCLC. DKFZ-608, a homoleptic dithiocarbamate gold complex, reversibly binds TRXR1 in competition with the TRXR1 substrate thioredoxin-1 (TRX1). Consequently, cells expressing low levels of TRX1, like SCLC, are hypersensitive to DKFZ-608, while cells, which express higher levels of TRX1, are resistant. DKFZ-608 causes oxidative stress in the cytoplasm, but not in mitochondria, further contributing to its low toxicity profile.

For a further data set, the system named is roGFP2-Orp1. In words: Oxidation of the genetically encoded H2O2 probe roGFP2-Orp1 (cytoplasmic and mitochondrial). In kind it is cell-based. Particulars: for reversibility of probe oxidation: concentrations below the EC50 of DKFZ-608.
The target in data set [4] is T1, TRXR1. The source holds these as a separate data set.
Data set [5] has as its target T1, TRXR1. Particulars: inhibitors pre-incubated with TRXR1 before addition of TRX1. From the text:
The mode of inhibition was further characterized by investigating the effect of substrate competition.

Data set [6] deals with T1, TRXR1. This is another data set of the same source.

T1 sequence (Q16881 151-649 limits assumed): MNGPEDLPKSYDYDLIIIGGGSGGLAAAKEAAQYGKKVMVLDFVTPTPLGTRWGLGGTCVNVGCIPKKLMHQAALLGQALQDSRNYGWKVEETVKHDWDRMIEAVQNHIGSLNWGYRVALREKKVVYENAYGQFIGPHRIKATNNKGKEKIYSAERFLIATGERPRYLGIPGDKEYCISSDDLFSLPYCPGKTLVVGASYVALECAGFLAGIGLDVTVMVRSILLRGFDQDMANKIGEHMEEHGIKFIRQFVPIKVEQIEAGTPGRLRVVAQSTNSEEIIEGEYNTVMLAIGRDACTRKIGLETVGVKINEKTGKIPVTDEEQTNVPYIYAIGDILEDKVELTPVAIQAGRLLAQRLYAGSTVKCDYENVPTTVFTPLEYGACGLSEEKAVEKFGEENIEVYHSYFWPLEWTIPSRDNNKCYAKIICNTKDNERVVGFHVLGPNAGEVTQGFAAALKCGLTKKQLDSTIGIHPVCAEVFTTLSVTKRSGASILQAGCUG
Sequence of truncated form of TRXR1, lacking the Sec (TRXR1ΔSec) (Q16881 151-647 limits assumed, stated change not applied): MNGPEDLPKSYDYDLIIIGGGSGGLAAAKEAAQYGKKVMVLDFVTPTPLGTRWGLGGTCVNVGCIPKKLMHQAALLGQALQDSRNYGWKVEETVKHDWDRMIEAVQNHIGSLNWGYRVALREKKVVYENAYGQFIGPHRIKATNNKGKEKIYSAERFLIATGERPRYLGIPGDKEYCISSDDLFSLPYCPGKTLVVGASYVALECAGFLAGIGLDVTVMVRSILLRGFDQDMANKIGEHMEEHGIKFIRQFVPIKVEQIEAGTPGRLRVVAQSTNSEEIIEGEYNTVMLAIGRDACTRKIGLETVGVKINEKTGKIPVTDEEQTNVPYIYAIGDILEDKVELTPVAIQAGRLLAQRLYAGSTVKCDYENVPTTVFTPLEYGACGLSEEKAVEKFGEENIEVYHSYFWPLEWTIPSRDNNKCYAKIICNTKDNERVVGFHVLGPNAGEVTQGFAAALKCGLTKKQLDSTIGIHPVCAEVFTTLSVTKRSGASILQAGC

Consider `CCN(CC)C1=[S+][Au-][S]C(N(CC)CC)=[S+][Au-][S]1` [DKFZ-608], for which the increase of peroxides result in [1] is “induced fast and strong increase of peroxides”. Besides, in the data set on SCLC cell line H209 (H209), the “cytotoxic effect in presence of pan-Caspase inhibitor” value was “could be reverted by the pan-Caspase inhibitor z-VAD-FMK”. Besides, the “Annexin-V positive cells and late apoptotic cells” value in the data set with SCLC cell line H209 (data not shown) is “increases the amount of Annexin-V positive cells and late apoptotic cells”. Also, the “effect of DTNB substrate increase on dose response curve” value on TRXR1 [2] was “right-shift of the dose response curve”. The “inhibition of TRXR1ΔSec” value in data set [3] was “not inhibited”. Moreover, in the data set with SCLC, the tumour recurrence result is listed as “completely prevents tumour recurrence”. In the data set with roGFP2-Orp1, the “reversibility of probe oxidation” value is reported as “appears to be reversible” and the “oxidation of the mitochondrial roGFP2-Orp1 probe” value is reported as “did not cause oxidation of the mitochondrial probe”. The “TRXR1 inhibition in cells” value on TRXR1 [4] (H209 versus A549, TRXR1 inhibition after 100min) is “more potent inhibition of TRXR1 in the SCLC line H209 as compared to the NSCLC line A549”. Further, at TRXR1 [4] (SCLC line H69), the “dose response curves upon induced overexpression of TRX1” value is “rightshift of the dose response curves of cytotoxicity and TRXR1 inhibition”. For the same compound, on TRXR1 [5], the “effect of increasing amounts of TRX1 on enzyme inhibition” value is recorded as “increasing amounts of TRX1 reduced enzyme inhibition”. For the same compound, the “enzymatic activity after dilution of a sample containing TRXR1 and a high concentration of inhibitor” value at TRXR1 [6] is recorded as “resulted in recovery of enzymatic activity”.

As to `CC[P+](CC)(CC)[Au-][S][C@@H]1O[C@H](COC(C)=O)[C@@H](OC(C)=O)[C@H](OC(C)=O)[C@H]1OC(C)=O` [auranofin, reference compound], the increase of peroxides entry in data set [1] was “induced fast and strong increase of peroxides”. The “effect of DTNB substrate increase on dose response curve” value at TRXR1 [2] was “showed no affect with increasing DTNB concentrations”. The “inhibition of TRXR1ΔSec” value in data set [3] is listed as “able to repress the activity of the truncated enzyme, although to a lesser extent”. Also, in the data set on roGFP2-Orp1, the “reversibility of probe oxidation” value is “remains stable”; the “oxidation of the mitochondrial roGFP2-Orp1 probe” value was “produces the same fast and pronounced increase in probe oxidation as in the cytoplasm”. Also, the “effect of increasing amounts of TRX1 on enzyme inhibition” value on TRXR1 [5] was “an effect not observed”. Further, the “enzymatic activity after dilution of a sample containing TRXR1 and a high concentration of inhibitor” value on TRXR1 [6] was “this was not the case”.
